Species: Rattus norvegicus
Assay: Open TG-GATES - Regimen: Single
Type: toxicity, organism-based, Sprague-Dawley
Design: regimen Single, gender Male, age 6 weeks
Settings: in vivo, po, route gavage; for APTT / Bas / Eos / Fbg / Hb / Ht / Lym / MCH / MCHC / MCV / Mono / Neu / PT / Plat / RBC / Ret / WBC: tissue Blood; for KIDNEY_L / KIDNEY_R / KIDNEY_TOTAL: tissue Kidney; for LIVER: tissue Liver; for A/G / ALP / ALT / AST / BUN / CRE / Ca / Cl / DBIL / GLC / IP / K / LDH / Na / PL / RALB / TBIL / TC / TG / TP / gamma-GTP: tissue Plasma
[1] = 300 mg/kg, 3 h, dose level Middle
[2] = 300 mg/kg, 6 h, dose level Middle
[3] = 300 mg/kg, 9 h, dose level Middle
[4] = 300 mg/kg, 24 h, dose level Middle
[5] = 1000 mg/kg, 3 h, dose level High
[6] = 1000 mg/kg, 6 h, dose level High
[7] = 1000 mg/kg, 9 h, dose level High
[8] = 1000 mg/kg, 24 h, dose level High

## CC(S)C(=O)NCC(=O)O (centres undefined) [TIOPRONIN]
[1]
  TERMINAL_BW: 211.9 g
  APTT: 22.7 s
  Bas: 0%
  Eos: 0.4%
  Fbg: 295.4 mg/dL
  Hb: 12.8 g/dL
  Ht: 39.7%
  Lym: 77.8%
  MCH: 20.3 pg
  MCHC: 32.2%
  MCV: 63 fL
  Mono: 2.6%
  Neu: 18.4%
  PT: 16.8 s
  Plat: 116 x10_4/uL
  RBC: 631.6 x10_4/ul
  Ret: 7.7%
  WBC: 76.7 x10_2/uL
  KIDNEY_L: 0.9 g
  KIDNEY_R: 1 g
  KIDNEY_TOTAL: 1.9 g
  LIVER: 9.7 g
  A/G: 1.2
  ALP: 1446.8 IU/L
  ALT: 65.2 IU/L
  AST: 83.6 IU/L
  BUN: 10.8 mg/dL
  CRE: 0.1 mg/dL
  Ca: 10.7 mg/dL
  Cl: 106.2 meq/L
  DBIL: 0.002 mg/dL
  GLC: 194.8 mg/dL
  IP: 7.9 mg/dL
  K: 3.9 meq/L
  LDH: 169.4 IU/L
  Na: 142.2 meq/L
  PL: 125.2 mg/dL
  RALB: 3 g/dL
  TBIL: 0.02 mg/dL
  TC: 73.6 mg/dL
  TG: 47 mg/dL
  TP: 5.4 g/dL
  gamma-GTP: 2 IU/L
[2]
  TERMINAL_BW: 212 g
  APTT: 21.2 s
  Bas: 0%
  Eos: 0.8%
  Fbg: 290.4 mg/dL
  Hb: 12.6 g/dL
  Ht: 38.8%
  Lym: 80.4%
  MCH: 20.2 pg
  MCHC: 32.5%
  MCV: 62.2 fL
  Mono: 2.6%
  Neu: 15.4%
  PT: 16.9 s
  Plat: 121.4 x10_4/uL
  RBC: 625 x10_4/ul
  Ret: 8%
  WBC: 77.2 x10_2/uL
  KIDNEY_L: 0.9 g
  KIDNEY_R: 1 g
  KIDNEY_TOTAL: 1.9 g
  LIVER: 9.2 g
  A/G: 1.2
  ALP: 1527 IU/L
  ALT: 58 IU/L
  AST: 73 IU/L
  BUN: 8.4 mg/dL
  CRE: 0.1 mg/dL
  Ca: 10.8 mg/dL
  Cl: 107.4 meq/L
  DBIL: 0 mg/dL
  GLC: 191.6 mg/dL
  IP: 9.6 mg/dL
  K: 4.4 meq/L
  LDH: 154.2 IU/L
  Na: 142.2 meq/L
  PL: 117.2 mg/dL
  RALB: 2.9 g/dL
  TBIL: 0.022 mg/dL
  TC: 67.2 mg/dL
  TG: 59.4 mg/dL
  TP: 5.3 g/dL
  gamma-GTP: 1.8 IU/L
[3]
  TERMINAL_BW: 208.1 g
  APTT: 23.7 s
  Bas: 0%
  Eos: 0.4%
  Fbg: 293.4 mg/dL
  Hb: 12.9 g/dL
  Ht: 40.3%
  Lym: 77.8%
  MCH: 20.7 pg
  MCHC: 32.1%
  MCV: 64.6 fL
  Mono: 2.4%
  Neu: 18.6%
  PT: 16.3 s
  Plat: 118 x10_4/uL
  RBC: 624 x10_4/ul
  Ret: 7.7%
  WBC: 77 x10_2/uL
  KIDNEY_L: 0.9 g
  KIDNEY_R: 1 g
  KIDNEY_TOTAL: 1.9 g
  LIVER: 8.1 g
  A/G: 1.2
  ALP: 1363.8 IU/L
  ALT: 52.8 IU/L
  AST: 75 IU/L
  BUN: 10.6 mg/dL
  CRE: 0.1 mg/dL
  Ca: 10.6 mg/dL
  Cl: 107.4 meq/L
  DBIL: 0.008 mg/dL
  GLC: 191.4 mg/dL
  IP: 9.8 mg/dL
  K: 4.2 meq/L
  LDH: 194.2 IU/L
  Na: 143.2 meq/L
  PL: 110.6 mg/dL
  RALB: 2.8 g/dL
  TBIL: 0.02 mg/dL
  TC: 63.4 mg/dL
  TG: 42.2 mg/dL
  TP: 5.3 g/dL
  gamma-GTP: 1.2 IU/L
[4]
  TERMINAL_BW: 227.3 g
  APTT: 21.1 s
  Bas: 0%
  Eos: 0.8%
  Fbg: 312.6 mg/dL
  Hb: 12.7 g/dL
  Ht: 38.9%
  Lym: 80%
  MCH: 20.4 pg
  MCHC: 32.7%
  MCV: 62.2 fL
  Mono: 3%
  Neu: 15%
  PT: 16.1 s
  Plat: 113.7 x10_4/uL
  RBC: 624.6 x10_4/ul
  Ret: 7.4%
  WBC: 100.8 x10_2/uL
  KIDNEY_L: 1 g
  KIDNEY_R: 1 g
  KIDNEY_TOTAL: 1.9 g
  LIVER: 10.4 g
  A/G: 1.2
  ALP: 1662.2 IU/L
  ALT: 41.8 IU/L
  AST: 72.4 IU/L
  BUN: 14.6 mg/dL
  CRE: 0.2 mg/dL
  Ca: 10.8 mg/dL
  Cl: 106.4 meq/L
  DBIL: 0 mg/dL
  GLC: 193.6 mg/dL
  IP: 7.6 mg/dL
  K: 4.4 meq/L
  LDH: 161.6 IU/L
  Na: 142.6 meq/L
  PL: 143.2 mg/dL
  RALB: 3 g/dL
  TBIL: 0.018 mg/dL
  TC: 81.6 mg/dL
  TG: 102.4 mg/dL
  TP: 5.6 g/dL
  gamma-GTP: 1.2 IU/L
[5]
  TERMINAL_BW: 213.5 g
  APTT: 23 s
  Bas: 0%
  Eos: 0.4%
  Fbg: 307.8 mg/dL
  Hb: 13 g/dL
  Ht: 40.2%
  Lym: 75.8%
  MCH: 20.5 pg
  MCHC: 32.3%
  MCV: 63.5 fL
  Mono: 4%
  Neu: 18%
  PT: 17.1 s
  Plat: 120.4 x10_4/uL
  RBC: 633.8 x10_4/ul
  Ret: 8%
  WBC: 75.4 x10_2/uL
  KIDNEY_L: 0.9 g
  KIDNEY_R: 0.9 g
  KIDNEY_TOTAL: 1.8 g
  LIVER: 9.2 g
  A/G: 1.1
  ALP: 1422.8 IU/L
  ALT: 95.4 IU/L
  AST: 90 IU/L
  BUN: 11.2 mg/dL
  CRE: 0.1 mg/dL
  Ca: 10.4 mg/dL
  Cl: 106.8 meq/L
  DBIL: 0 mg/dL
  GLC: 199.4 mg/dL
  IP: 9.1 mg/dL
  K: 4 meq/L
  LDH: 232.2 IU/L
  Na: 141.4 meq/L
  PL: 115.4 mg/dL
  RALB: 2.8 g/dL
  TBIL: 0.008 mg/dL
  TC: 69 mg/dL
  TG: 52.8 mg/dL
  TP: 5.3 g/dL
  gamma-GTP: 1.8 IU/L
[6]
  TERMINAL_BW: 211.1 g
  APTT: 23.4 s
  Bas: 0%
  Eos: 0.4%
  Fbg: 291.4 mg/dL
  Hb: 12.9 g/dL
  Ht: 39.5%
  Lym: 76.2%
  MCH: 20.3 pg
  MCHC: 32.6%
  MCV: 62.4 fL
  Mono: 3.2%
  Neu: 18.6%
  PT: 17.6 s
  Plat: 120 x10_4/uL
  RBC: 632.6 x10_4/ul
  Ret: 8.1%
  WBC: 99 x10_2/uL
  KIDNEY_L: 0.9 g
  KIDNEY_R: 0.9 g
  KIDNEY_TOTAL: 1.9 g
  LIVER: 8.2 g
  A/G: 1.2
  ALP: 1452 IU/L
  ALT: 77.2 IU/L
  AST: 78 IU/L
  BUN: 9 mg/dL
  CRE: 0.1 mg/dL
  Ca: 10.3 mg/dL
  Cl: 107 meq/L
  DBIL: 0.002 mg/dL
  GLC: 196 mg/dL
  IP: 9.3 mg/dL
  K: 4.1 meq/L
  LDH: 147.4 IU/L
  Na: 140.4 meq/L
  PL: 100.4 mg/dL
  RALB: 2.8 g/dL
  TBIL: 0.016 mg/dL
  TC: 59.8 mg/dL
  TG: 31.6 mg/dL
  TP: 5.2 g/dL
  gamma-GTP: 1.8 IU/L
[7]
  TERMINAL_BW: 211.2 g
  APTT: 23.6 s
  Bas: 0%
  Eos: 0.2%
  Fbg: 271.2 mg/dL
  Hb: 12.6 g/dL
  Ht: 39.2%
  Lym: 74.6%
  MCH: 20.3 pg
  MCHC: 32%
  MCV: 63.2 fL
  Mono: 1.4%
  Neu: 23.4%
  PT: 17.6 s
  Plat: 123.5 x10_4/uL
  RBC: 621.6 x10_4/ul
  Ret: 7.4%
  WBC: 71.9 x10_2/uL
  KIDNEY_L: 1 g
  KIDNEY_R: 1 g
  KIDNEY_TOTAL: 1.9 g
  LIVER: 7.8 g
  A/G: 1.2
  ALP: 1385.8 IU/L
  ALT: 69.4 IU/L
  AST: 80.6 IU/L
  BUN: 9.4 mg/dL
  CRE: 0.1 mg/dL
  Ca: 10.5 mg/dL
  Cl: 106.8 meq/L
  DBIL: 0.006 mg/dL
  GLC: 188.2 mg/dL
  IP: 9.1 mg/dL
  K: 4.3 meq/L
  LDH: 160.4 IU/L
  Na: 140.8 meq/L
  PL: 98.6 mg/dL
  RALB: 2.8 g/dL
  TBIL: 0.018 mg/dL
  TC: 55.6 mg/dL
  TG: 40.4 mg/dL
  TP: 5.2 g/dL
  gamma-GTP: 1.2 IU/L
[8]
  TERMINAL_BW: 228 g
  APTT: 22.3 s
  Bas: 0%
  Eos: 1%
  Fbg: 307.2 mg/dL
  Hb: 12.8 g/dL
  Ht: 39.1%
  Lym: 76.8%
  MCH: 20.2 pg
  MCHC: 32.6%
  MCV: 62.1 fL
  Mono: 3.2%
  Neu: 18%
  PT: 16.2 s
  Plat: 115.2 x10_4/uL
  RBC: 630.2 x10_4/ul
  Ret: 7.7%
  WBC: 117.2 x10_2/uL
  KIDNEY_L: 1 g
  KIDNEY_R: 1 g
  KIDNEY_TOTAL: 2 g
  LIVER: 10.2 g
  A/G: 1.2
  ALP: 1503 IU/L
  ALT: 47 IU/L
  AST: 76.6 IU/L
  BUN: 16.2 mg/dL
  CRE: 0.2 mg/dL
  Ca: 10.8 mg/dL
  Cl: 107.4 meq/L
  DBIL: 0 mg/dL
  GLC: 181.6 mg/dL
  IP: 7.4 mg/dL
  K: 4.6 meq/L
  LDH: 176.2 IU/L
  Na: 142.6 meq/L
  PL: 138.8 mg/dL
  RALB: 2.9 g/dL
  TBIL: 0.008 mg/dL
  TC: 76.8 mg/dL
  TG: 117 mg/dL
  TP: 5.4 g/dL
  gamma-GTP: 1.4 IU/L
